Species: Rattus norvegicus
Assay: Open TG-GATES - Regimen: Single
Format: toxicity, organism-based, Sprague-Dawley
Parameters: regimen Single, gender Male, age 6 weeks
Details: in vivo, ip, 0 mg/kg, route intraperitoneal injection, dose level Control; for APTT / Bas / Eos / Fbg / Hb / Ht / Lym / MCH / MCHC / MCV / Mono / Neu / PT / Plat / RBC / Ret / WBC: tissue Blood; for KIDNEY_L / KIDNEY_R / KIDNEY_TOTAL: tissue Kidney; for LIVER: tissue Liver; for A/G / ALP / ALT / AST / BUN / CRE / Ca / Cl / DBIL / GLC / IP / K / LDH / Na / PL / RALB / TBIL / TC / TG / TP / gamma-GTP: tissue Plasma

CC(C)=CC(=O)C=C(C)C [PHORONE]
TERMINAL_BW (3 h): 224.3 g
APTT (3 h): 17.2 s
Bas (3 h): 0%
Eos (3 h): 1%
Fbg (3 h): 227.4 mg/dL
Hb (3 h): 13.5 g/dL
Ht (3 h): 40.2%
Lym (3 h): 71%
MCH (3 h): 22.1 pg
MCHC (3 h): 33.5%
MCV (3 h): 65.9 fL
Mono (3 h): 8.2%
Neu (3 h): 19.8%
PT (3 h): 12.2 s
Plat (3 h): 114.4 x10_4/uL
RBC (3 h): 609.2 x10_4/ul
Ret (3 h): 9.2%
WBC (3 h): 97 x10_2/uL
KIDNEY_L (3 h): 1 g
KIDNEY_R (3 h): 1 g
KIDNEY_TOTAL (3 h): 2 g
LIVER (3 h): 10.7 g
A/G (3 h): 1.9
ALP (3 h): 863.8 IU/L
ALT (3 h): 35.2 IU/L
AST (3 h): 73.4 IU/L
BUN (3 h): 13.6 mg/dL
CRE (3 h): 0.5 mg/dL
Ca (3 h): 11.1 mg/dL
Cl (3 h): 106.2 meq/L
DBIL (3 h): 0.02 mg/dL
GLC (3 h): 195 mg/dL
IP (3 h): 9.9 mg/dL
K (3 h): 5.1 meq/L
LDH (3 h): 86 IU/L
Na (3 h): 139.6 meq/L
PL (3 h): 142.8 mg/dL
RALB (3 h): 3.6 g/dL
TBIL (3 h): 0.4 mg/dL
TC (3 h): 75.8 mg/dL
TG (3 h): 99 mg/dL
TP (3 h): 5.6 g/dL
gamma-GTP (3 h): 1.4 IU/L
TERMINAL_BW (6 h): 219.5 g
APTT (6 h): 17.4 s
Bas (6 h): 0%
Eos (6 h): 0.6%
Fbg (6 h): 223.8 mg/dL
Hb (6 h): 13.2 g/dL
Ht (6 h): 39.7%
Lym (6 h): 74.6%
MCH (6 h): 21.2 pg
MCHC (6 h): 33.2%
MCV (6 h): 63.9 fL
Mono (6 h): 4.4%
Neu (6 h): 20.4%
PT (6 h): 12.3 s
Plat (6 h): 118.6 x10_4/uL
RBC (6 h): 620.2 x10_4/ul
Ret (6 h): 9.1%
WBC (6 h): 102.1 x10_2/uL
KIDNEY_L (6 h): 0.9 g
KIDNEY_R (6 h): 0.9 g
KIDNEY_TOTAL (6 h): 1.9 g
LIVER (6 h): 9.7 g
A/G (6 h): 2
ALP (6 h): 700.4 IU/L
ALT (6 h): 34.8 IU/L
AST (6 h): 72.8 IU/L
BUN (6 h): 12.6 mg/dL
CRE (6 h): 0.5 mg/dL
Ca (6 h): 10.6 mg/dL
Cl (6 h): 105.2 meq/L
DBIL (6 h): 0.024 mg/dL
GLC (6 h): 210.4 mg/dL
IP (6 h): 10.2 mg/dL
K (6 h): 4.7 meq/L
LDH (6 h): 65 IU/L
Na (6 h): 139 meq/L
PL (6 h): 137 mg/dL
RALB (6 h): 3.5 g/dL
TBIL (6 h): 0.4 mg/dL
TC (6 h): 77.8 mg/dL
TG (6 h): 50 mg/dL
TP (6 h): 5.2 g/dL
gamma-GTP (6 h): 1.2 IU/L
TERMINAL_BW (9 h): 217.4 g
APTT (9 h): 17.2 s
Bas (9 h): 0%
Eos (9 h): 0.8%
Fbg (9 h): 246.8 mg/dL
Hb (9 h): 13.1 g/dL
Ht (9 h): 39.7%
Lym (9 h): 70%
MCH (9 h): 21.7 pg
MCHC (9 h): 33.1%
MCV (9 h): 65.5 fL
Mono (9 h): 4.6%
Neu (9 h): 25.2%
PT (9 h): 11.9 s
Plat (9 h): 112.4 x10_4/uL
RBC (9 h): 606.8 x10_4/ul
Ret (9 h): 9.2%
WBC (9 h): 108.4 x10_2/uL
KIDNEY_L (9 h): 0.9 g
KIDNEY_R (9 h): 1 g
KIDNEY_TOTAL (9 h): 1.9 g
LIVER (9 h): 9 g
A/G (9 h): 2.1
ALP (9 h): 720.6 IU/L
ALT (9 h): 29.8 IU/L
AST (9 h): 60.6 IU/L
BUN (9 h): 11.4 mg/dL
CRE (9 h): 0.5 mg/dL
Ca (9 h): 10.7 mg/dL
Cl (9 h): 105.8 meq/L
DBIL (9 h): 0.066 mg/dL
GLC (9 h): 200.6 mg/dL
IP (9 h): 10.6 mg/dL
K (9 h): 4.5 meq/L
LDH (9 h): 74.8 IU/L
Na (9 h): 138.8 meq/L
PL (9 h): 138.6 mg/dL
RALB (9 h): 3.8 g/dL
TBIL (9 h): 0.4 mg/dL
TC (9 h): 79.8 mg/dL
TG (9 h): 42.8 mg/dL
TP (9 h): 5.6 g/dL
gamma-GTP (9 h): 1.4 IU/L
TERMINAL_BW (24 h): 237.9 g
APTT (24 h): 17.4 s
Bas (24 h): 0%
Eos (24 h): 1%
Fbg (24 h): 276.4 mg/dL
Hb (24 h): 12.9 g/dL
Ht (24 h): 38.6%
Lym (24 h): 73.6%
MCH (24 h): 21.5 pg
MCHC (24 h): 33.3%
MCV (24 h): 64.8 fL
Mono (24 h): 4.6%
Neu (24 h): 20.6%
PT (24 h): 11.7 s
Plat (24 h): 118.3 x10_4/uL
RBC (24 h): 596.2 x10_4/ul
Ret (24 h): 8.4%
WBC (24 h): 101.3 x10_2/uL
KIDNEY_L (24 h): 1 g
KIDNEY_R (24 h): 1.1 g
KIDNEY_TOTAL (24 h): 2.1 g
LIVER (24 h): 11.7 g
A/G (24 h): 1.9
ALP (24 h): 856.2 IU/L
ALT (24 h): 28.8 IU/L
AST (24 h): 55.6 IU/L
BUN (24 h): 16.4 mg/dL
CRE (24 h): 0.5 mg/dL
Ca (24 h): 10.9 mg/dL
Cl (24 h): 103.2 meq/L
DBIL (24 h): 0.026 mg/dL
GLC (24 h): 195.4 mg/dL
IP (24 h): 8.7 mg/dL
K (24 h): 4.9 meq/L
LDH (24 h): 66.2 IU/L
Na (24 h): 138.4 meq/L
PL (24 h): 140.6 mg/dL
RALB (24 h): 3.6 g/dL
TBIL (24 h): 0.4 mg/dL
TC (24 h): 78.4 mg/dL
TG (24 h): 80.8 mg/dL
TP (24 h): 5.6 g/dL
gamma-GTP (24 h): 1.6 IU/L

— ChEMBL document CHEMBL3885861, “Open TG-GATES”
